Assay results reported in paper PMC5946847, “Synthesis and biological evaluation of aryl-oxadiazoles as inhibitors of Mycobacterium tuberculosis” (Bioorganic & Medicinal Chemistry Letters, 2018).
≈ marks a conversion by molar mass, not a printed value. Where two headings read alike, the source gives them in different places.

Assays:
[1] = test system: M. tuberculosis H37Rv expressing DsRed; assay: microbe, parasite or virus in culture; format: cell-based; settings: Mycobacterium tuberculosis, read-out: 7H9-Tw-OADC MIC
[2] = test system: M. tuberculosis H37Rv expressing DsRed; assay: microbe, parasite or virus in culture; format: cell-based; settings: Mycobacterium tuberculosis, average ± standard deviation for at least 2 runs, read-out: 7H9-Ty-BT MIC
[3] = Mouse microsomal stability; format: in vitro ADME; settings: for Mouse microsome (% metabolized in 30 min): 2 μM
Description: 4. Method for microsomal stability:
To determine microsomal turnover, test compounds were incubated (2 μM) with liver microsomes in the presence of NADPH, and loss of parent molecule was measured by LC-MS after 30 min.

[4] = test system: Vero cells (ATCC CCL81); assay: Cytotoxicity in Vero cells (CellTiter-Glo); format: cell-based; settings: Chlorocebus sabaeus, 48 h, 2 days
Description: Vero cells (ATCC® CCL81) were grown in DMEM, high glucose, GlutaMAX™ (Invitrogen), 10% FBS, 50 units/mL penicillin, and 50 µg/mL streptomycin, seeded as 1200 cells per well in 384-well plates and incubated for 24 h at 37 °C with 5% CO2. Compounds were added as a 3-fold serial dilution series and cells incubated for 2 days at 37 °C with 5% CO2. Viability was measured using CellTiter-Glo® Reagent (Promega).

[5] = physchem; settings: pH 7.4

| Structure (SMILES) | MIC [1] [µM] | MIC [2] [µM] | Mouse microsome (% metabolized in 30 min) ([3]; mouse, microsomes, 0.5 h) [%] | IC50 [4] [µM] | solubility [5] [µg/mL] | CLint scaled at 2 μM ([3]; mouse, microsomes) [mL/min/kg] | Mouse microsome (% metabolized in 30 min) ([3]; NADPH, 30 min) [%] | CLint scaled at 2 μM ([3]; mouse, microsomes, Table 1, read-out: Mouse microsome unbound intrinsic clearance) [mL/min/kg] |
| --- | --- | --- | --- | --- | --- | --- | --- | --- |
| c1ccc(Cc2nnc(-c3cccs3)o2)cc1 [Compound 9] | > 20 | 1.1 ± 0.2 (≈ 0.267 µg/mL) | 99 | 79 | 31 (≈ 128 µM) |  |  |  |
| c1ccc(-c2nnc(CN3CCc4ccccc43)o2)cc1 [Compound 37] | > 20 | 2.3 ± 0.9 (≈ 0.638 µg/mL) | 99 | > 100 | 21 (≈ 75.7 µM) |  |  |  |
| c1ccc(-c2nnc(CN3CCCc4ccccc43)o2)cc1 [Compound 25] | > 20 | 1.7 ± 0.1 (≈ 0.495 µg/mL) | 100 | > 100 | 3 (≈ 10.3 µM) |  |  |  |
| c1ccc(-c2nnc(CN3CCOc4ccccc43)o2)cc1 [Compound 33] | > 20 | 2.8 ± 1.7 (≈ 0.821 µg/mL) | 99 | > 100 | 28 (≈ 95.5 µM) |  |  |  |
| CN(Cc1nnc(-c2ccco2)o1)C(=O)c1c(F)cccc1Cl [Compound 22] | > 20 | > 20 | 95 | > 100 | 640 (≈ 1910 µM) |  |  |  |
| FC(F)(F)c1ccc(-c2nnc(CN3CCOc4ccccc43)o2)cc1 [Compound 35] | > 20 | 8.3 ± 1.7 (≈ 3 µg/mL) | 95 | 85 | < 2 |  |  |  |
| c1ccc(-c2nnc(CN3Cc4ccccc4C3)o2)cc1 [Compound 39] | > 20 | 7.5 ± 3.5 (≈ 2.08 µg/mL) | 98 | > 100 | 20 (≈ 72.1 µM) |  |  |  |
| CN(CCc1c(F)cccc1Cl)c1nnc(-c2ccco2)o1 [Compound 23] | > 20 | 4 ± 0.6 (≈ 1.29 µg/mL) | 99 | 93 | 7 (≈ 21.8 µM) |  |  |  |
| CN(Cc1nnc(-c2ccco2)o1)CC1CCCCC1 [Compound 19] | > 20 | 0.7 ± 0.5 (≈ 0.193 µg/mL) | 100 | 90 | 41 (≈ 149 µM) |  |  |  |
| CN(Cc1ccc(C(F)(F)F)cc1)Cc1nnc(-c2cccs2)o1 [Compound 17] | > 20 | 6.8 ± 2.4 (≈ 2.4 µg/mL) | 98 | 87 | 22 (≈ 62.3 µM) |  |  |  |
| CN(Cc1ccccc1)Cc1nnc(-c2cccs2)o1 [Compound 13] | > 20 | 0.5 ± 0.1 (≈ 0.143 µg/mL) | 98 | > 100 | 420 (≈ 1470 µM) |  |  |  |
| Fc1ccc(-c2nnc(CN3CCc4ccccc4C3)o2)cc1 [Compound 30] | > 20 | 4.7 ± 1.3 (≈ 1.45 µg/mL) | 80 | > 100 | 40 (≈ 129 µM) |  |  |  |
| c1csc(-c2nnc(CN3CCc4ccccc43)o2)c1 [Compound 36] | > 20 | 2.1 ± 0.1 (≈ 0.595 µg/mL) | 99 | > 100 | 38 (≈ 134 µM) |  |  |  |
| Fc1ccc(-c2nnc(CN3CCCc4ccccc43)o2)cc1 [Compound 26] | > 20 | 0.2 ± 0.1 (≈ 0.0619 µg/mL) | 100 | > 100 | < 2 |  |  |  |
| c1ccc(C2CCCN2Cc2nnc(-c3cccs3)o2)cc1 (centres unmarked) [Compound 40] | > 20 | 9.9 ± 2.1 (≈ 3.08 µg/mL) | 100 | 50 | 50 (≈ 161 µM) |  |  |  |
| CN(Cc1nnc(-c2ccccc2)o1)Cc1c(F)cccc1Cl [Compound 12] | > 20 | 0.4 ± 0.2 (≈ 0.133 µg/mL) | 100 | > 100 | 78 (≈ 235 µM) |  |  |  |
| c1csc(-c2nnc(CN3Cc4ccccc4C3)o2)c1 [Compound 38] | > 20 | 6.7 ± 1.7 (≈ 1.9 µg/mL) | 99 | > 100 | 12 (≈ 42.3 µM) |  |  |  |
| FC(F)(F)c1ccc(-c2nnc(CN3CCCc4ccccc43)o2)cc1 [Compound 27] | > 20 | 0.7 ± 0.3 (≈ 0.252 µg/mL) | 87 | > 100 | < 2 |  |  |  |
| c1ccc(-c2nnc(CN3CCCC3c3ccccc3)o2)cc1 (centres unmarked) [Compound 41] | > 20 | 8.3 ± 1.4 (≈ 2.53 µg/mL) | 99 | > 100 | 34 (≈ 111 µM) |  |  |  |

| Structure (SMILES) | MIC [1] [µM] | MIC [2] [µM] | Mouse microsome (% metabolized in 30 min) ([3]; mouse, microsomes, 0.5 h) [%] | IC50 [4] [µM] | solubility [5] [µg/mL] | CLint scaled at 2 μM ([3]; mouse, microsomes) [mL/min/kg] | Mouse microsome (% metabolized in 30 min) ([3]; NADPH, 30 min) [%] | CLint scaled at 2 μM ([3]; mouse, microsomes, Table 1, read-out: Mouse microsome unbound intrinsic clearance) [mL/min/kg] |
| --- | --- | --- | --- | --- | --- | --- | --- | --- |
| c1csc(-c2nnc(CN3CCc4ccccc4C3)o2)c1 [Compound 28] | > 20 | 3.7 ± 0.3 (≈ 1.1 µg/mL) | 99 | > 100 | 54 (≈ 182 µM) |  |  |  |
| c1coc(-c2nnc(Cc3cccc4ccccc34)o2)c1 [Compound 6] | > 20 | 1.1 ± 0.9 (≈ 0.304 µg/mL) | 100 | > 100 | < 1 |  |  |  |
| CN(Cc1nnc(-c2ccco2)s1)Cc1c(F)cccc1Cl [Compound 10] | > 20 | 3.2 ± 0.5 (≈ 1.08 µg/mL) | 99 | 75 | 20 (≈ 59.2 µM) |  |  |  |
| c1csc(-c2nnc(Cc3cccc4c3OCCO4)o2)c1 [Compound 8] | > 20 | 0.8 ± 0.2 (≈ 0.24 µg/mL) | 99 | > 100 | 77 (≈ 256 µM) |  |  |  |
| CN(Cc1ccc(C(F)(F)F)cc1)Cc1nnc(-c2ccccc2)o1 [Compound 18] | > 20 | 10.8 ± 3.3 (≈ 3.75 µg/mL) | 99 | 80 | 9 (≈ 25.9 µM) |  |  |  |
| Fc1cccc(Cl)c1COCc1nnc(-c2ccco2)o1 [Compound 21] | > 20 | 6 ± 0.4 (≈ 1.85 µg/mL) | 100 | > 100 | 150 (≈ 486 µM) |  |  |  |
| FC(F)(F)c1ccc(-c2nnc(CN3CCc4ccccc4C3)o2)cc1 [Compound 31] | > 20 | > 20 |  | > 100 | < 2 |  |  |  |
| c1csc(-c2nnc(CN3CCOc4ccccc43)o2)c1 [Compound 32] | > 20 | 1.8 ± 0.6 (≈ 0.539 µg/mL) | 99 | > 100 | 33 (≈ 110 µM) |  |  |  |
| CN(Cc1nnc(-c2ccco2)o1)Cc1ccccc1Cl [Compound 15] | > 20 | 0.6 ± 0.2 (≈ 0.182 µg/mL) | 100 | 98 | 270 (≈ 889 µM) |  |  |  |
| c1coc(-c2nnc(SCc3cccc4ccccc34)o2)c1 [Compound 4] |  |  | 95 |  | < 1 | 1680 |  |  |
| CN(Cc1ccc(F)cc1)Cc1nnc(-c2ccccc2)o1 [Compound 16] | > 20 | 0.9 ± 0.03 (≈ 0.268 µg/mL) |  | 97 |  |  |  |  |
| CN(Cc1ccccc1)Cc1nnc(-c2ccco2)o1 [Compound 14] | > 20 | 0.6 ± 0.2 (≈ 0.162 µg/mL) | 95 | > 100 | 400 (≈ 1490 µM) |  |  |  |
| c1csc(-c2nnc(CN3CCCc4ccccc43)o2)c1 [Compound 24] | > 20 | 0.8 ± 0.5 (≈ 0.238 µg/mL) | 97 | > 100 | 5 (≈ 16.8 µM) |  |  |  |
| c1ccc(-c2nnc(CN3CCc4ccccc4C3)o2)cc1 [Compound 29] | > 20 | 7.7 ± 0.8 (≈ 2.24 µg/mL) | 99 | > 100 | 51 (≈ 175 µM) |  |  |  |
| c1csc(-c2nnc(Cc3ccc4ccccc4c3)o2)c1 [Compound 7] | > 20 | 5.7 ± 0.2 (≈ 1.67 µg/mL) | 100 | > 100 | < 1 |  |  |  |
| Fc1ccc(-c2nnc(CN3CCOc4ccccc43)o2)cc1 [Compound 34] | > 20 | 1.8 ± 0.4 (≈ 0.56 µg/mL) | 98 | > 100 | < 2 |  |  |  |
| CN(Cc1nnc(-c2cccs2)o1)Cc1c(F)cccc1Cl [Compound 11] | > 20 | 0.6 ± 0.2 (≈ 0.203 µg/mL) | 100 | > 100 | 120 (≈ 355 µM) |  |  |  |
| c1csc(-c2nnc(COc3ccc4c(c3)OCO4)o2)c1 [Compound 5] |  |  |  |  |  |  | 76 | 332 |
| Fc1cccc(Cl)c1CNCc1nnc(-c2ccco2)o1 [Compound 20] | > 20 | 5.5 ± 0.4 (≈ 1.69 µg/mL) | 99 | > 100 | 180 (≈ 585 µM) |  |  |  |
